Data: US20250223259A1, “PROTEASE INHIBITORS FOR TREATING OR PREVENTING CORONAVIRUS INFECTION” (Merck Sharp & Dohme LLC, priority 2022, published 2025)

Biological target: SARS2 coronavirus 3CL protease (Severe acute respiratory syndrome coronavirus 2 (2019-nCoV) (SARS-CoV-2), UniProt P0DTD1)
Assay: SARS2 Coronavirus 3CL Protease Assay (FRET)
Format: biochemical
Settings: SARS2 3CLPro FRET assay; 5 nM enzyme, 30 min pre-incubation with compound, 15 uM peptide substrate, 4 h room temperature

Compound | IC50 [nM]
CNC(=O)C(=O)[C@H](CCC(C)(F)F)NC(=O)[C@@H]1[C@H]2CC(C)(C)O[C@H]2CN1C(=O)[C@@H](NC(=O)OC)C(C)(C)C [Example 86, methyl ((S)-1-((3aR,4S,6aR)-4-(((S)-6,6-difluoro-1-(methylamino)-1,2-dioxoheptan-3-yl)carbamoyl)-2,2-dimethylhexahydro-5H-furo[2,3-c]pyrrol-5-yl)-3,3-dimethyl-1-oxobutan-2-yl)carbamate] | 20
COC(=O)N[C@H](C(=O)N1CC(C2CCCC2)C[C@H]1C(=O)N[C@@H](CCC(C)(F)F)C(=O)C(=O)NC1CC1)C(C)(C)C (single isomer, unassigned) [Example 3, Methyl ((S)-1-((2S,4(R or S))-4-cyclopentyl-2-(((S)-1-(cyclopropylamino)-6,6-difluoro-1,2-dioxoheptan-3-yl)carbamoyl)pyrrolidin-1-yl)-3,3-dimethyl-1-oxobutan-2-yl)carbamate] | 58
COC(=O)N[C@H](C(=O)N1C[C@H]2[C@@H]([C@H]1C(=O)N[C@@H](CCC(C)(F)F)C(=O)C(=O)NC1CC1)C21CCCCC1)C(C)(C)C [Example 69, Methyl ((S)-1-((1R,2S,5S)-2-(((S)-1-(cyclopropylamino)-6,6-difluoro-1,2-dioxoheptan-3-yl)carbamoyl)-3-azaspiro[bicyclo[3.1.0]hexane-6,1'-cyclohexan]-3-yl)-3,3-dimethyl-1-oxobutan-2-yl)carbamate] | 31
COC(=O)N[C@H](C(=O)N1C[C@@H]2CC(C)(C)[C@@H]2[C@H]1C(=O)N[C@@H](CCC(C)(F)F)C(=O)C(=O)NC1CC1)C(C)(C)C [Example 25, Methyl ((S)-1-((1R,2S,5R)-2-(((S)-1-(cyclopropylamino)-6,6-difluoro-1,2-dioxoheptan-3-yl)carbamoyl)-7,7-dimethyl-3-azabicyclo[3.2.0]heptan-3-yl)-3,3-dimethyl-1-oxobutan-2-yl)carbamate] | 8.7
COC(=O)NC(C(=O)N1CC2(CCCCC2)C[C@H]1C(=O)N[C@@H](CCC(C)(F)F)C(=O)C(=O)NC1CC1)C1CCC1 (single isomer, unassigned) [Example 63, Methyl ((R or S)-1-cyclobutyl-2-((S)-3-(((S)-1-(cyclopropylamino)-6,6-difluoro-1,2-dioxoheptan-3-yl)carbamoyl)-2-azaspiro[4.5]decan-2-yl)-2-oxoethyl)carbamate] | 32
COC(=O)N[C@H](C(=O)N1CC2(CCCCC2)C[C@H]1C(=O)N[C@@H](CCC(C)(F)F)C(=O)C(=O)NC(C)(C)C)C(C)(C)C [Example 18, Methyl ((S)-1-((S)-3-(((S)-1-(tert-butylamino)-6,6-difluoro-1,2-dioxoheptan-3-yl)carbamoyl)-2-azaspiro[4.5]decan-2-yl)-3,3-dimethyl-1-oxobutan-2-yl)carbamate] | 42
CNC(=O)C(=O)[C@H](CCC(C)(F)F)NC(=O)[C@@H]1CC[C@H](C)N1C(=O)[C@@H](NC(=O)OC)C(C)(C)C [Example 85, methyl ((S)-1-((2S,5S)-2-(((S)-6,6-difluoro-1-(methylamino)-1,2-dioxoheptan-3-yl)carbamoyl)-5-methylpyrrolidin-1-yl)-3,3-dimethyl-1-oxobutan-2-yl)carbamate] | 257
COC(=O)N[C@H](C(=O)N1CC2(CCCCC2)C[C@H]1C(=O)N[C@@H](CCC(C)(F)F)C(=O)C(=O)NC1CC1)C(F)(F)F [Example 46, Methyl ((R)-3-((S)-3-(((S)-1-(cyclopropylamino)-6,6-difluoro-1,2-dioxoheptan-3-yl)carbamoyl)-2-azaspiro[4.5]decan-2-yl)-1,1,1-trifluoro-3-oxopropan-2-yl)carbamate] | 34
COC(=O)N[C@H](C(=O)N1CCCC(C2CC2)C1C(=O)N[C@@H](CCC(C)(F)F)C(=O)C(=O)NC1CC1)C(C)(C)C (single isomer, unassigned) [Example 90, methyl ((S)-1-((2S,3R or 2R,3S)-3-cyclopropyl-2-(((S)-1-(cyclopropylamino)-6,6-difluoro-1,2-dioxoheptan-3-yl)carbamoyl)piperidin-1-yl)-3,3-dimethyl-1-oxobutan-2-yl)carbamate] | 16
COC(=O)N[C@@H](Cc1noc(C)n1)C(=O)N1C[C@H]2[C@@H]([C@H]1C(=O)N[C@@H](CCC(C)(F)F)C(=O)C(=O)NC1CC1)C2(C)C [Example 123, methyl ((S)-1-((1R,2S,5S)-2-(((S)-1-(cyclopropylamino)-6,6-difluoro-1,2-dioxoheptan-3-yl)carbamoyl)-6,6-dimethyl-3-azabicyclo[3.1.0]hexan-3-yl)-3-(5-methyl-1,2,4-oxadiazol-3-yl)-1-oxopropan-2-yl)carbamate] | 29
COC(=O)N[C@H](C(=O)N1C[C@H](C(F)(F)F)C[C@H]1C(=O)N[C@@H](CCC(C)(F)F)C(=O)C(=O)NC1CC1)C(C)(C)F [Example 71, Methyl ((R)-1-((2S,4R)-2-(((S)-1-(cyclopropylamino)-6,6-difluoro-1,2-dioxoheptan-3-yl)carbamoyl)-4-(trifluoromethyl)pyrrolidin-1-yl)-3-fluoro-3-methyl-1-oxobutan-2-yl)carbamate] | 43
COC(=O)N[C@H](C(=O)N1C[C@H]2[C@@H]([C@H]1C(=O)N[C@@H](CCC(C)(F)F)C(=O)C(=O)NC1CC1)C21CCCC1)C(C)(C)C [Example 38, Methyl ((S)-1-((1R,2S,5S)-2-(((S)-1-(cyclopropylamino)-6,6-difluoro-1,2-dioxoheptan-3-yl)carbamoyl)-3-azaspiro[bicyclo[3.1.0]hexane-6,1′-cyclopentan]-3-yl)-3,3-dimethyl-1-oxobutan-2-yl)carbamate] | 9.7
COC(=O)N[C@H](C(=O)N1CCC(C2CC2)C1C(=O)N[C@@H](CCC(C)(F)F)C(=O)C(=O)NC1CC1)C(C)(C)C (single isomer, unassigned) [Example 23, Methyl ((S)-1-((2(S or R),3(R or S))-3-cyclopropyl-2-(((S)-1-(cyclopropylamino)-6,6-difluoro-1,2-dioxoheptan-3-yl)carbamoyl)pyrrolidin-1-yl)-3,3-dimethyl-1-oxobutan-2-yl)carbamate] | 10
COC(=O)N[C@H](C(=O)N1CC2(CCCCC2)C[C@H]1C(=O)N[C@@H](CCC(C)(F)F)C(=O)C(=O)NC(C)C)C(C)(C)C [Example 13, Methyl ((S)-1-((S)-3-(((S)-6,6-difluoro-1-(isopropylamino)-1,2-dioxoheptan-3-yl)carbamoyl)-2-azaspiro[4.5]decan-2-yl)-3,3-dimethyl-1-oxobutan-2-yl)carbamate] | 49
COC(=O)N[C@H](C(=O)N1CC[C@@H](C(F)(F)F)C[C@H]1C(=O)N[C@@H](CCC(C)(F)F)C(=O)C(=O)NC1CC1)C(C)(C)C [Example 61, Methyl ((S)-1-((2S,4R)-2-(((S)-1-(cyclopropylamino)-6,6-difluoro-1,2-dioxoheptan-3-yl)carbamoyl)-4-(trifluoromethyl)piperidin-1-yl)-3,3-dimethyl-1-oxobutan-2-yl)carbamate] | 16
COC(=O)N[C@H](C(=O)N1CC2CC2C[C@H]1C(=O)N[C@@H](CCC(C)(F)F)C(=O)C(=O)NC1CC1)C(C)(C)C (single isomer, unassigned) [Example 84, methyl ((S)-1-((1S,4S,6S or 1R,4S,6R)-4-(((S)-1-(cyclopropylamino)-6,6-difluoro-1,2-dioxoheptan-3-yl)carbamoyl)-3-azabicyclo[4.1.0]heptan-3-yl)-3,3-dimethyl-1-oxobutan-2-yl)carbamate] | 96
COC(=O)N[C@H](C(=O)N1C[C@H]2[C@H](CCC2(F)F)[C@H]1C(=O)N[C@@H](CCC(C)(F)F)C(=O)C(=O)NC1CC1)C(C)(C)C [Example 33, Methyl ((S)-1-((1S,3aR,6aS)-1-(((S)-1-(cyclopropylamino)-6,6-difluoro-1,2-dioxoheptan-3-yl)carbamoyl)-4,4-difluorohexahydrocyclopenta[c]pyrrol-2(1H)-yl)-3,3-dimethyl-1-oxobutan-2-yl)carbamate] | 9.7
CC(C)[C@H](NC(=O)OC(C)(C)C)C(=O)N1CC2(CCCCC2)C[C@H]1C(=O)N[C@@H](CCC(C)(F)F)C(=O)C(=O)NC1CC1 [Example 15, Tert-butyl ((S)-1-((S)-3-(((S)-1-(cyclopropylamino)-6,6-difluoro-1,2-dioxoheptan-3-yl)carbamoyl)-2-azaspiro[4.5]decan-2-yl)-3-methyl-1-oxobutan-2-yl)carbamate] | 113
COC(=O)N[C@H](C(=O)N1CC2(C[C@H]1C(=O)N[C@@H](CCC(C)(F)F)C(=O)C(=O)NC1CC1)CC2(F)F)C(C)(C)C (single isomer, unassigned) [Example 32, Methyl ((S)-1-((3(R or S),6S)-6-(((S)-1-(cyclopropylamino)-6,6-difluoro-1,2-dioxoheptan-3-yl)carbamoyl)-1,1-difluoro-5-azaspiro[2.4]heptan-5-yl)-3,3-dimethyl-1-oxobutan-2-yl)carbamate] | 15
CNC(=O)C(=O)[C@H](CCC(C)(F)F)NC(=O)[C@@H]1[C@H]2CCC[C@H]2CN1C(=O)C(NC(=O)OC)C1(C(F)(F)F)CC1 (stereo partly drawn) [Example 88, methyl (2-((1S,3aR,6aS)-1-(((S)-6,6-difluoro-1-(methylamino)-1,2-dioxoheptan-3-yl)carbamoyl)hexahydrocyclopenta[c]pyrrol-2(1H)-yl)-2-oxo-1-(1-(trifluoromethyl)cyclopropy 1)ethyl)carbamate] | 21
COC(=O)N[C@H](C(=O)N1CC2(CCCCC2)C[C@H]1C(=O)N[C@@H](CCC(C)(F)F)C(=O)C(=O)Nc1ccccc1C)C(C)(C)C [Example 12, Methyl ((S)-1-((S)-3-(((S)-6,6-difluoro-1,2-dioxo-1-(o-tolylamino)heptan-3-yl)carbamoyl)-2-azaspiro[4.5]decan-2-yl)-3,3-dimethyl-1-oxobutan-2-yl)carbamate] | 41
COC(=O)N[C@H](C(=O)N1C[C@@H]2CCC[C@@H]2[C@H]1C(=O)N[C@@H](CCC(C)(F)F)C(=O)C(=O)NC1CC1)[C@@H](C)OC [Example 118, methyl ((2S,3R)-1-((1S,3aR,6aS)-1-(((S)-1-(cyclopropylamino)-6,6-difluoro-1,2-dioxoheptan-3-yl)carbamoyl)hexahydrocyclopenta[c]pyrrol-2(1H)-yl)-3-methoxy-1-oxobutan-2-yl)carbamate] | 14
